Measured values taken from US10988459B2 (priority 2015, dated 2021).

target: human RIP1 kinase domain (2-375) (Homo sapiens (Human), UniProt Q13546); assay: biochemical; assay type: biochemical; settings: Table 1; apparent Ki (Morrison tight-binding fit); 50 nM RIP1 kinase domain, 50 uM ATP, 2 hours incubation; read-out: RIP1 Ki
How it was run: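 Ki^app comes from Morrison tight-binding fits of fractional activity versus compound concentration. Activity was read as ADP production, via tracer displacement lowering fluorescence polarization (633 nm laser). Conditions: 2 h, 50 nM insect-cell-expressed enzyme, 50 uM ATP, 30 mM MgCl2, 1 mM DTT, 0.5% DMSO, pH 7.5 Hepes.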

Chain of human RIP1 kinase domain (2-375) (Q13546 2-375): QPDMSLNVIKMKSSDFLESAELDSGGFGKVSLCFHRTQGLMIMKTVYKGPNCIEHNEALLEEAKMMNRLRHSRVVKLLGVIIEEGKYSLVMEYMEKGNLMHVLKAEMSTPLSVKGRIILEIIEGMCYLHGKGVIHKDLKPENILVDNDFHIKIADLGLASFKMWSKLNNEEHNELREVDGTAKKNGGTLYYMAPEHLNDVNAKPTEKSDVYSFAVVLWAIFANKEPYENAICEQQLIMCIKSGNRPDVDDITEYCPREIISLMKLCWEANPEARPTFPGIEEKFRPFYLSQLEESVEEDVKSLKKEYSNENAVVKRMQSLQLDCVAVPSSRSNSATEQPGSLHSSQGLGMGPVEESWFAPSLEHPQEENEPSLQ

SMILES | Ki [nM]
CN1C(=O)[C@@H](NC(=O)c2n[nH]c3c2CCC3)COc2ccccc21 [Example 48, (S)-N-(5-methyl-4-oxo-2,3,4,5-tetrahydrobenzo[b][1,4]oxazepin-3-yl)-1,4,5,6-tetrahydrocyclopenta[c]pyra7.ole-3-carboxamide] | 8600
CN1C(=O)[C@@H](NC(=O)c2ncc3ccc(C(F)(F)F)cn23)COc2ccccc21 [Example 35, N-[(3S)-5-methyl-4-oxo-2,3-dihydro-1,5-benzoxazepin-3-yl]-6-(trifluoromethyl)imidazo[1,5-a]pyridine-3-carboxamide] | 8.74
CC1CCc2noc(C(=O)N[C@H]3COc4ccccc4N(C)C3=O)c2C1 (stereo partly drawn) [Example 66, 5-methyl-N-((S)-5-methyl-4-oxo-2,3,4,5-tetrahydrobenzo[b][1,4]oxazepin-3-yl)-4,5,6,7-tetrahydrobenzo[c]isoxazole-3-carboxamide] | 37.4

same assay, conditions: Table 3; apparent Ki (Morrison tight-binding fit); 50 nM RIP1 kinase domain, 50 uM ATP, 2 hours incubation; read-out: Ki

Ki [nM] | SMILES
231 | CN1C(=O)[C@@H](NC(=O)c2ncn3ccc(C(F)(F)F)cc23)CCn2nccc21 [Example 336, (S)-N-(4-methyl-5-oxo-5,6,7,8-tetrahydro-4H-pyrazolo[1,5-a][1,3]diazepin-6-yl)-7-(trifluoromethyl)imidazo[1,5-a]pyridine-1-carboxamide]

same assay, conditions: Table 5; apparent Ki (Morrison tight-binding fit); 50 nM RIP1 kinase domain, 50 uM ATP, 2 hours incubation; read-out: Ki

Ki [nM] | SMILES
172 | COC1CN(Cc2cc3n(n2)CC[C@H](NC(=O)c2ncn(Cc4ccccc4)n2)C(=O)N3C)C1 [Example 781, (S)-1-benzyl-N-(2-((3-methoxyazetidin-1-yl)methyl)-4-methyl-5-oxo-5,6,7,8-tetrahydro-4H-pyrazolo[1,5-a][1,3]diazepin-6-yl)-1H-1,2,4-triazole-3-carboxamide]
10 | CN1C(=O)[C@@H](NC(=O)c2cc3c(cn2)CO[C@]3(C)C(F)(F)F)COc2ccccc21 [Example 742, (1S)-1-methyl-N-[(3S)-5-methyl-4-oxo-2,3-dihydro-1,5-benzoxazepin-3-yl]-1-(trifluoromethyl)-3H-furo[3,4-c]pyridine-6-carboxamide]

same assay, conditions: human RIP1 kinase domain (2-375), 50 uM ATP, 2 hours incubation, Transcreener ADP assay; read-out: RIP1 Ki

Ki [nM] | SMILES
20.8 | O=C(N[C@H]1COc2cc(F)cc(F)c2NC1=O)c1n[nH]c2c1C[C@@H](C(F)(F)F)CC2 (single isomer, unassigned) [Example 86]
13.2 | Cc1cc2n(n1)CC[C@H](NC(=O)c1ncn(Cc3ccc(Cl)cc3)n1)C(=O)N2C [Example 170, (S)-1-(4-chlorobenzyl)-N-(2,4-dimethyl-5-oxo-5,6,7,8-tetrahydro-4H-pyrazolo[1,5-a][1,3]diazepin-6-yl)-1H-1,2,4-triazole-3-carboxamide]
120 | CN1C(=O)C(NC(=O)c2ncn(Cc3ccccc3)n2)CCn2nc(-c3ccccc3)cc21 (stereo not shown) [Example 208, 1-benzyl-N-(4-methyl-5-oxo-2-phenyl-5,6,7,8-tetrahydro-4H-pyrazolo[1,5-a][1,3]diazepin-6-yl)-1H-1,2,4-triazole-3-carboxamide]
166 | CN1C(=O)[C@@H](NC(=O)c2n[nH]c3c2CC2(CC3)CC2)COc2ccccc21 [Example 174, (S)—N-(5-methyl-4-oxo-2,3,4,5-tetrahydrobenzo[b][1,4]oxazepin-3-yl)-1′,4′,6′,7′-tetrahydrospiro[cyclopropane-1,5′-indazole]-3′-carboxamide]
124 | CN1C(=O)C(NC(=O)c2ncn(Cc3ccccc3)n2)CCCn2cncc21 (stereo not shown) [Example 103, 1-benzyl-N-(1-methyl-2-oxo-1,2,3,4,5,6-hexahydroimidazo[1,5-a][1,3]diazocin-3-yl)-1H-1,2,4-triazole-3-carboxamide]
388 | CN1C(=O)[C@@H](NC(=O)c2ncn(Cc3ccccc3)n2)CC[C@@H]2[C@H]1C2(F)F (single isomer, unassigned) [Example 129]
76.8 | CN1C(=O)C(NC(=O)c2ncn(Cc3ccccc3)n2)CCn2nc(C(F)(F)F)cc21 (stereo not shown) [Example 85, 1-benzyl-N-(4-methyl-5-oxo-2-(trifluoromethyl)-5,6,7,8-tetrahydro-4H-pyrazolo[1,5-a][1,3]diazepin-6-yl)-1H-1,2,4-triazole-3-carboxamide]
39.1 | CC(C)C1CCc2cnc(C(=O)N[C@H]3COc4ccccc4N(C)C3=O)n2C1 (stereo partly drawn) [Example 173, 6-isopropyl-N—((S)-5-methyl-4-oxo-2,3,4,5-tetrahydrobenzo[b][1,4]oxazepin-3-yl)-5,6,7,8-tetrahydroimidazo[1,5-a]pyridine-3-carboxamide]
316 | CN1C(=O)C(NC(=O)c2ncn(Cc3ccccc3)n2)CCn2nc3c(c21)CS(=O)(=O)C3 (stereo not shown) [Example 140, 1-benzyl-N-(1-methyl-9,9-dioxido-2-oxo-1,2,3,4,5,10-hexahydro-8H-thieno[3′,4′:3,4]pyrazolo[1,5-a][1,3]diazepin-3-yl)-1H-1,2,4-triazole-3-carboxamide]
76.8 | CN1C(=O)[C@@H](NC(=O)c2nc3n(n2)C(c2ccccc2)CC3)CCn2nccc21 (stereo partly drawn) [Example 124, N—((S)-4-methyl-5-oxo-5,6,7,8-tetrahydro-4H-pyrazolo[1,5-a][1,3]diazepin-6-yl)-5-phenyl-6,7-dihydro-5H-pyrrolo[1,2-b][1,2,4]triazole-2-carboxamide]

same assay, conditions: human RIP1 kinase domain (2-375), Transcreener ADP assay, 50 uM ATP, 2 hours incubation; read-out: RIP1 Ki

Ki [nM] | SMILES
854 | CC[C@@]1(C)OCc2cnc(C(=O)NC3CCn4cnc(C)c4N(C)C3=O)cc21 (stereo partly drawn) [Example 263, (1R)—N-(1,9-dimethyl-2-oxo-2,3,4,5-tetrahydro-1H-imidazo[1,5-a][1,3]diazepin-3-yl)-1-ethyl-1-methyl-1,3-dihydrofuro[3,4-c]pyridine-6-carboxamide]
1100 | Cc1cc2n(n1)CCC(NC(=O)c1ncn(CC3CC(F)(F)C3)n1)C(=O)N2C (stereo not shown) [Example 248, 1-((3,3-difluorocyclobutyl)methyl)-N-(2,4-dimethyl-5-oxo-5,6,7,8-tetrahydro-4H-pyrazolo[1,5-a][1,3]diazepin-6-yl)-1H-1,2,4-triazole-3-carboxamide]
50.4 | Cc1nn2c(c1C)N(C)C(=O)[C@@H](NC(=O)c1nnc(Cc3ccccc3)[nH]1)CC2 [Example 300, (S)-5-benzyl-N-(2,3,4-trimethyl-5-oxo-5,6,7,8-tetrahydro-4H-pyrazolo[1,5-a][1,3]diazepin-6-yl)-4H-1,2,4-triazole-3-carboxamide]
18.5 | CN1C(=O)[C@@H](NC(=O)c2ncn(Cc3cc(F)cc(F)c3)n2)CCn2nc(C3CC3)cc21 [Example 303, (S)—N-(2-cyclopropyl-4-methyl-5-oxo-5,6,7,8-tetrahydro-4H-pyrazolo[1,5-a][1,3]diazepin-6-yl)-1-(3,5-difluorobenzyl)-1H-1,2,4-triazole-3-carboxamide]

same assay, conditions: tight-binding apparent inhibition constant; human RIP1 kinase domain (2-375) 50 nM, 50 uM ATP, 2 hours; read-out: Ki

Ki [nM] | SMILES
110 | Cc1cc2n(n1)CC[C@H](NC(=O)c1ncn(Cc3ncccc3F)n1)C(=O)N2C [Example 654, 1-[(3-fluoro-2-pyridyl)methyl]-N-(6S)-2,4-dimethyl-5-oxo-7,8-dihydro-6H-pyrazolo[1,5-a][1,3]diazepin-6-yl-1,2,4-triazole-3-carboxamide]
330 | CN1C(=O)[C@@H](NC(=O)c2ncc3c(n2)C2(CCOCC2)OC3)COc2ccccc21 [Example 510]
37 | Cc1cc2n(n1)CC[C@H](NC(=O)c1ncn(CC3CC(C)C3)n1)C(=O)N2C (stereo in doubt) [Example 491, 1-[(3-methylcyclobutyl)methyl]-N-(6S)-2,4-dimethyl-5-oxo-7,8-dihydro-6H-pyrazol[1,5-a][1,3]diazepin-6-yl-1,2,4-triazole-3-carboxamide]
555 | CN1C(=O)C(NC(=O)c2ncn(Cc3ccccc3)n2)CCn2nc(C(C)(C)F)cc21 (single isomer, unassigned) [Example 370, 1-benzyl-N-[2-(1-fluoro-1-methyl-ethyl)-4-methyl-5-oxo-7,8-dihydro-6H-pyrazolo[1,5-a][1,3]diazepin-6-yl]-1,2,4-triazole-3-carboxamide]
63 | CN1C(=O)[C@@H](NC(=O)c2ncn(Cc3ccccc3)n2)CCn2nc(CCCN3CCOCC3)cc21 [Example 662]
303 | CC[C@@H]1CCc2nc(C(=O)N[C@H]3COc4ccccc4N(C)C3=O)nn21 (single isomer, unassigned) [Example 359]
210 | CN1C(=O)[C@H](NC(=O)c2nnc(Cc3ccc(F)cc3)[nH]2)CCn2nc(C(F)(F)F)cc21 [Example 550]
7.83 | CN1C(=O)[C@@H](NC(=O)c2nc3c(-c4ccccc4)nccn3n2)COc2ccccc21 [Example 442, (S)—N-(5-methyl-4-oxo-2,3,4,5-tetrahydrobenzo[b][1,4]oxazepin-3-yl)-8-phenyl-[1,2,4]triazolo[1,5-a]pyrazine-2-carboxamide]
30.5 | Cc1cn2c(n1)N(C)C(=O)[C@H](NC(=O)c1ncn(Cc3ccccc3)n1)CC2 (racemic) [Example 693, 1-benzyl-N-[rac-(7R)-2,9-dimethyl-8-oxo-6,7-dihydro-5H-imidazo[1,2-a][1,3]diazepin-7-yl]-1,2,4-triazole-3-carboxamide]
6.9 | Cc1cc2n(n1)CC[C@H](NC(=O)c1ncn(Cc3cccc(Cl)c3)n1)C(=O)N2C [Example 521, 1-[(3-chlorophenyl)methyl]-N-(6S)-2,4-dimethyl-5-oxo-7,8-dihydro-6H-pyrazolo[1,5-a][1,3]diazepin-6-yl-1,2,4-triazole-3-carboxamide]
37 | CN1C(=O)[C@@H](NC(=O)c2nc3n(n2)CCC3c2ccccc2)CCn2nccc21 (stereo partly drawn) [Example 579, 7-phenyl-N-[(6S)-4-methyl-5-oxo-7,8-dihydro-6H-pyrazolo[1,5-a][1,3]diazepin-6-yl]-6,7-dihydro-5H-pyrrolo[1,2-b][1,2,4]triazole-2-carboxamide]
